{
  "source": "paper PMC10466336",
  "about": "“Chemical Probe for Imaging of Polo-like Kinase 4 and Centrioles” (JACS Au, 2023)",
  "key": {"Plk4 kinase domain": {"target": "T1, Plk4 kinase domain (Homo sapiens, UniProt O00444)", "T1 construct": "Plasmids encoding fragments of Plk4 kinase domain (2-275) with 6xHis-tag were cloned in pET system vectors; made in house; host or cells: E. coli BL21 gold (DE3)", "T1 sequence (O00444 2-275)": "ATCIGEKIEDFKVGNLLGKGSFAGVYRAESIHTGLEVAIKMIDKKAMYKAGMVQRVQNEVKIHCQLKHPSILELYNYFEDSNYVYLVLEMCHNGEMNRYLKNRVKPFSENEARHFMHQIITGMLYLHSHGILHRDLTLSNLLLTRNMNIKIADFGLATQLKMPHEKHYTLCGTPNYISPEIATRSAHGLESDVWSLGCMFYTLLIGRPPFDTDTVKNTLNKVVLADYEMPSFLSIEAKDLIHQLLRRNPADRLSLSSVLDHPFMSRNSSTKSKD", "assay": "Competition binding assay based on fluorescence polarization (tracer Alexa488-PEG-N-centrinone)", "details": "Alexa488-PEG-N-centrinone 1 nM, Plk4-KD 5 nM", "text": "Moreover, we substituted the basic acetyl-piperazine nitrogen in compounds (1 and 2a) with an acetyl-piperidine, to avoid probe protonation and accumulation in endolysosomal compartments (Figure S1A, B).[23] […] These probes were characterized first in vitro by measuring their fluorogenicity in the presence of the 6xHis-tagged Plk4 kinase domain (KD) (Table 1). […] Next, we measured the binding affinities of the probes to the Plk4 kinase domain via a competition binding assay based on fluorescence polarization. […]\n1.3.6 Fluorescence Polarization assay & competition assay […]\nplate (Greiner Bio-One). Upon mixture of protein and ligand, the plate was incubated for 30 min at room temperature followed by fluorescence polarization measurements by a plate reader (TECAN Spark® 20M) using 485 nm as excitation wavelength (bandwidth 20 nm) and 535 nm as emission wavelength (bandwidth 25 nm). The obtained fluorescence polarization values from each well were plotted against the concentration of the protein. The apparent Kd values were obtained by fitting the curve to the […]\nFP = FP + FPmax ― FPmin (C + C + K ― (C + C + K )2 ― 4C C ) […]\nprotein should be around the Kd of the tracer to ensure that enough free protein that can bind the […]\ncompetitor, and enough signal change coming from binding and unbinding of the tracer. The solution of the tracer and protein was titrated with increasing amounts of competitors, in our case SiR650- and […]\nThe mixture was then incubated for an hour at room temperature and the FP was then measured on a plate reader using the same conditions as mentioned before. From the obtained FP values, we have calculated the amount of free protein in the solution for each concentration of competitor using the equation of the single-site binding isotherm:\nPfree = Kd_tracer FP ― FP\nWhere Pfree is concentration of free protein, Kd tracer represents the previously determined binding affinity"}, "[1]": {"target": "T2, endogenous Plk4 in HeLa cells expressing Centrin1-GFP (Homo sapiens, UniProt O00444)", "T2 construct": "live cell imaging of endogenous Plk4; endogenous in cells; host or cells: HeLa cells stably expressing Centrin1-GFP", "T2 sequence (O00444 1-970)": "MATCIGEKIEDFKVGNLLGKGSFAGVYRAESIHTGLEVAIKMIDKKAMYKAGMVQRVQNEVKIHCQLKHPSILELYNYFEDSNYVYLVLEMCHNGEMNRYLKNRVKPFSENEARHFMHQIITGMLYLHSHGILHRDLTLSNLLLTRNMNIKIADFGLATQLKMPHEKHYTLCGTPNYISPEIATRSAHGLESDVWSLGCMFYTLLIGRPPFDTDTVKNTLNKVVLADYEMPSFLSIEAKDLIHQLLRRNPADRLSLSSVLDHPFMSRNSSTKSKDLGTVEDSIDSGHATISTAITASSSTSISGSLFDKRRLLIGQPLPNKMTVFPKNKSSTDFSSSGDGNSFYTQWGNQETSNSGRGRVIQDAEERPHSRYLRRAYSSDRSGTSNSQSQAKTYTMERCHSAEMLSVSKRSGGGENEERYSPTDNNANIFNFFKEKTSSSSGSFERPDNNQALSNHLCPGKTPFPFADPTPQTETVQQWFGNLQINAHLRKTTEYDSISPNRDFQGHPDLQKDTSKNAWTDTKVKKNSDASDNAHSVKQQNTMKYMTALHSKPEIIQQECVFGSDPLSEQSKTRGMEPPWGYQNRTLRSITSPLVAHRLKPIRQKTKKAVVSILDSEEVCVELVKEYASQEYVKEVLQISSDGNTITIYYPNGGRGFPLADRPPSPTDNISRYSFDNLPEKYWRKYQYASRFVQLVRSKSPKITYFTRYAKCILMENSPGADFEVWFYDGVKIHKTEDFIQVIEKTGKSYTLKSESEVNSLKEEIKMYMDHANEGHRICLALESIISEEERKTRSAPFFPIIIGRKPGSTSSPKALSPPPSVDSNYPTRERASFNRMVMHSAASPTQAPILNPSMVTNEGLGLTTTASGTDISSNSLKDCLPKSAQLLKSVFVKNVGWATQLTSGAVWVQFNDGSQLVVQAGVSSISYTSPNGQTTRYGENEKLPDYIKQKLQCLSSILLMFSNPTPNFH", "assay": "Live- and fixed-cell confocal/STED imaging of endogenous Plk4", "type": "cell-based", "details": "added to live cells in culture, 1 µM (Figure S1)"}, "[2]": {"target": "T3, 6xHis-tagged Plk4 kinase domain (KD) (Homo sapiens, UniProt O00444)", "T3 construct": "Plasmids encoding fragments of Plk4 kinase domain (2-275) with 6xHis-tag were cloned in pET system vectors; made in house; host or cells: E. coli BL21 gold (DE3)", "T3 sequence (O00444 2-275)": "T1 sequence (O00444 2-275)", "assay": "Estimation of fluorescence increase (fluorogenicity) with Plk4 kinase domain versus BSA", "details": "mean of F(+Plk4KD)/F(+BSA) and standard deviation, N = 3; probe 3 µM, 1 h 37 °C", "text": "Moreover, we substituted the basic acetyl-piperazine nitrogen in compounds (1 and 2a) with an acetyl-piperidine, to avoid probe protonation and accumulation in endolysosomal compartments (Figure S1A, B).[23] This yielded a second generation of centrinone-based probes (compounds 2b–d). These probes were characterized first in vitro by measuring their fluorogenicity in the presence of the 6xHis-tagged Plk4 kinase domain (KD) (Table 1). […] Next, we measured the binding affinities of the probes to the Plk4 kinase domain via a competition binding assay based on fluorescence polarization. […]\n1.3.5 Estimation of fluorescence increase\nThe probes were analysed as described in Lukinavičius et al. 2014 1. Briefly, SiR650 or SiR595- […]\npurified Plk4 kinase domain (10 µM in 20 mM Tris, 200 mM NaCl at pH 7.5) or to a bovine serum albumin (BSA) (Sigma) solution (0.2 mg/mL in 20 mM Tris, 200 mM NaCl at pH 7.5). Final concentration of the probe was 3 µM. The samples were incubated for 1 h at 37 °C, and fluorescence was measured in a 96-well plate (Greiner Bio-One) on a plate reader (TECAN Spark® 20M).\nFluorescence emission was recorded from 570 nm to 750 nm for SiR595 probes, and 630 nm to 750 nm for SiR650 while exciting at 550 nm ± 10 nm for SiR595 probes and at 610 ± 10 nm for SiR650 probes.\nA fluorescence excitation scan was recorded by measuring the emission at 660 ± 10 nm for SiR595 and 720 ± 10 nm for SiR650 probes, while exciting from 500 nm to 640 nm for SiR595 probes and from […]"}, "[3]": {"system": "HeLa cells expressing Centrin1-GFP", "assay": "Centriole phenotypic scoring (number of Centrin1-GFP foci)", "type": "cell-based, human", "details": "24 h incubation, scoring of Centrin1-GFP foci", "text": "Having established that SiR595-centrinone (2d) can successfully label overexpressed Plk4, we wanted to investigate whether it also marks endogenous Plk4. […] In contrast, partial Plk4 inhibition leads to increased levels of centriolar Plk4 due to partial interference with protein degradation mediated by autophosphorylation, overall resulting in centriole overamplification.[8] Therefore, both under-duplication and overamplification of centrioles can be used as a proxy for SiR595-centrinone binding to endogenous Plk4. […] We conclude that the failure of SiR595-centrinone (2d) to detect endogenous Plk4 is due to the low binding affinity of the probe in combination with low protein levels. […] In the second step, the Plk4-bound molecule is specifically reacted with an appropriate fluorogenic tetrazine dye.[27]−[33] This strategy was applied previously successfully to label various protein targets in live and fixed cells,[30],[32],[34]−[38] and we reasoned that a smaller and potentially more permeable Cen-TCO (3) derivative would likewise enable more efficient labeling of endogenous Plk4.\nWe conjugated trans-cyclooctene to the previously obtained compound (4) to obtain Cen-TCO (3) using the synthetic route outlined in Scheme S2. The resulting Cen-TCO (3) reacted with an appropriate tetrazine, such as SiR650-TetH (4a) (Figure S4A). The reaction was followed by LC-MS, and the data confirmed quantitative conversion of Cen-TCO (3) to the appropriate cycloaddition product Cen-Click-SiR650 (Figure S4A, D). […] To assess the phenotype caused by Cen-TCO (3), we incubated HeLa cells expressing Centrin1-GFP with different concentrations of Cen-TCO (3) for 24 h, followed by scoring of Centrin1-GFP foci numbers (Figure S5B). […] Despite the high unspecific background signal, a clear focus could be detected at centrioles (Figure 4B). […] The fwhm of the circular signal in this case was 368 ± 26 (N = 6) (Figure S7B), which corresponds to the size measured with overexpressed GFP-Plk4(K41M) (see Figure 3D), and approximately that of the torus region surrounding the centriole.[40] […]"}},
  "data": [
    {"smiles": "COc1c(Nc2cc(C)[nH]n2)nc(Sc2ccc(S(=O)(=O)Cc3cccc([N+](=O)[O-])c3F)cc2F)nc1N1CCN(CC(=O)NCCOCCNC(=O)c2ccc(C(=O)[O-])c(C3=C4C=CC(=[N+](C)C)C=C4[Si](C)(C)c4cc(N(C)C)ccc43)c2)CC1", "note": "[compound 1]", "values": [
      {"measurement": "Kd", "setting": "Plk4 kinase domain", "value": "48 ± 6", "unit": "nM"},
      {"measurement": "unspecific labeling in live human cells", "setting": "[1]", "value": "high unspecific labeling"},
      {"measurement": "FPIk4/FBSA", "setting": "[2]", "value": "4 ± 1"}
    ]},
    {"smiles": "COc1c(Nc2cc(C)[nH]n2)nc(Sc2ccc(S(=O)(=O)Cc3cccc([N+](=O)[O-])c3F)cc2F)nc1N1CCOCC1", "note": "[centrinone, reference compound]", "values": [
      {"measurement": "concentration causing the centriole under-duplication phenotype", "setting": "[3]", "value": "≥ 250", "unit": "nM"}
    ]},
    {"smiles": "COc1c(Nc2cc(C)[nH]n2)nc(Sc2ccc(S(=O)(=O)Cc3cccc([N+](=O)[O-])c3F)cc2F)nc1N1CCC(CC(=O)NCCCCNC(=O)c2ccc(C(=O)O)c(C3=C4C=CC(=N)C=C4[Si](C)(C)c4cc(N)ccc43)c2)CC1", "note": "[2c]", "values": [
      {"measurement": "Kd", "setting": "Plk4 kinase domain", "value": "23 ± 6", "unit": "nM"},
      {"measurement": "FPIk4/FBSA", "setting": "[2]", "value": "14 ± 2"}
    ]},
    {"smiles": "COc1c(Nc2cc(C)[nH]n2)nc(Sc2ccc(S(=O)(=O)Cc3cccc([N+](=O)[O-])c3F)cc2F)nc1N1CCC(CC(=O)NCCOCCNC(=O)c2ccc(C(=O)O)c(C3=C4C=CC(=N)C=C4[Si](C)(C)c4cc(N)ccc43)c2)CC1", "note": "[2b]", "values": [
      {"measurement": "Kd", "setting": "Plk4 kinase domain", "value": "14 ± 4", "unit": "nM"},
      {"measurement": "FPIk4/FBSA", "setting": "[2]", "value": "23 ± 1"}
    ]},
    {"smiles": "COc1c(Nc2cc(C)[nH]n2)nc(Sc2ccc(S(=O)(=O)Cc3cccc([N+](=O)[O-])c3F)cc2F)nc1N1CCN(CC(=O)NCCOCCNC(=O)c2ccc(C(=O)O)c(C3=C4C=CC(=N)C=C4[Si](C)(C)c4cc(N)ccc43)c2)CC1", "note": "[2a]", "values": [
      {"measurement": "Kd", "setting": "Plk4 kinase domain", "value": "26 ± 3", "unit": "nM"},
      {"measurement": "unspecific labeling in live human cells", "setting": "[1]", "value": "high unspecific labeling"},
      {"measurement": "FPIk4/FBSA", "setting": "[2]", "value": "10 ± 1"}
    ]}
  ]
}
